Data published in PMC4041848, “Differential Effects of Omeprazole and Lansoprazole Enantiomers on Aryl Hydrocarbon Receptor in Human Hepatocytes and Cell Lines” (PLoS ONE, 2014).
Like-named read-outs stand apart in the source and are kept apart here.

Key:
CYP1A2 mRNA = CYP1A2 mRNA induction in primary human hepatocytes (qRT-PCR); conditions: hepatocyte culture HH52, 24 h, 100 µM
Source text: (§1) Primary human hepatocytes used in this study were obtained from two sources: (i) from multiorgan donor HH52; the use of liver cells of donor HH52 was approved by “Ethical committee at the Faculty Hospital Olomouc”,and it was in accordance with Transplantation law #285/2002 Sb; “Ethical committee at the Faculty Hospital Olomouc” waived the authors from obtaining consent from the next of kin, regarding human hepatocytes obtained from liver donor HH52. (ii) long-term human hepatocytes in monolayer Batch HEP220770 (person), Batch HEP220774 (person) were purchased from Biopredic International (Biopredic International, Rennes, France). Cells were cultured in serum-free medium. Cultures were maintained at 37°C and 5% CO2 in a humidified incubator.
Total RNA was isolated using TRI Reagent (Molecular Research Center, Cincinnati, OH, USA). cDNA was synthesized from 1000 ng of total RNA using M-MLV Reverse Transcriptase (Finnzymes, Espoo, Finland) at 42°C for 60 min in the presence of random hexamers (Takara, Shiga, Japan). qRT-PCR was carried out using LightCycler FastStart DNA MasterPLUS SYBR Green I (Roche Diagnostic Corporation, Prague, Czech Republic) on a Light Cycler 480 II apparatus (Roche Diagnostic Corporation). CYP1A1, CYP1A2 and GAPDH mRNAs were determined as described previously. Measurements were performed in triplicates. […]

AZ-AHR cells = test: MTT cytotoxicity test in AZ-AHR reporter cells; conditions: for cytotoxicity: AZ-AHR cells, 24 h, MTT, concentrations up to 250 µM
Protocol: (§2) A stably transfected gene reporter cell line AZ-AHR, derived from human hepatoma HepG2 cells transfected with a construct containing several AhR binding sites upstream of a luciferase reporter gene, was used for assessment of AhR transcriptional activity. Cells were incubated for 24 h with tested compounds and/or vehicle (DMSO; 0.1% v/v), in the presence or absence of TCDD (10 nM; AZ-AHR cells) or DEX (100 nM; AZ-GR cells). After the treatments, cells were lysed and luciferase activity was measured. In parallel, cell viability was determined by conventional MTT test.
(§3) In the first series of experiments, the cytotoxicity of tested compounds was assessed in gene reporter cell line AZ-AHR. For this purpose, the cells were incubated for 24 h with S-OME, R-OME, rac-OME, S-LAN, R-LAN and rac-LAN at concentration ranging from 100 pM to 250 µM. The vehicle was DMSO (0.1% v/v). After the treatment, a conventional MTT test was performed.
(§4) Figure 1 Effect of omeprazole and lansoprazole enantiomers on transcriptional activity of aryl hydrocarbon receptor AhR in human gene reporter cell line AZ-AHR. The cells were seeded in 96-well plates and stabilized for 16 h. Panels A and B: Cells were incubated for 24 h with S-OME, R-OME, rac-OME, S-LAN, R-LAN and rac-LAN at concentrations ranging from 10^−10 M to 10^−4 M. The vehicle was DMSO (0.1% v/v). After the treatment, MTT test was performed and absorbance was measured at 540 nm. Treatments were performed in triplicates. The data are the mean from experiments from six different passages of cells and are expressed as a percentage of viability of control cells. The values of IC50 were calculated and are indicated in a figure. Panels C - F: AZ-AHR cells were incubated for 24 h with S-OME, R-OME, rac-OME, S-LAN, R-LAN and rac-LAN at concentrations ranging from 10^−10 M to 10^−4 M in the absence (Panels C and D - agonist mode) or in the presence (Panels E and F- antagonist mode) of TCDD (5 nM). The vehicle was DMSO (0.1% v/v). After the treatments, cells were lysed and luciferase activity was measured. Treatments were performed in triplicates in five (agonist mode) or four (antagonist mode) independent cell passages. […] Data are expressed as a fold induction of luciferase activity over control cells (Panels C and D - agonist mode) or as a percentage of maximal induction attained by TCDD (Panels E and F- antagonist mode).

[1] = test system: aryl hydrocarbon receptor AhR; test: AhR gene reporter assay, agonist mode
Protocol: as §2, §4
Gene reporter assays were performed in two different experimental layouts. […] In antagonist mode, cells were incubated with increasing concentrations of tested compounds in combination with model agonist (TCDD; 5 nM), and half-maximal inhibitory concentrations (IC50) were calculated. […] The efficacy was calculated at concentration of compounds of 100 µM and compared to 5 nM TCDD (Figure 1C).

[2] = test system: aryl hydrocarbon receptor AhR; test: AhR gene reporter assay, antagonist mode (with TCDD); conditions: read-out: AhR antagonist IC50; AZ-AHR cells, 24 h, in the presence of TCDD (5 nM), average of four passages
Protocol: as §2
Figure 1 Effect of omeprazole and lansoprazole enantiomers on transcriptional activity of aryl hydrocarbon receptor AhR in human gene reporter cell line AZ-AHR. The cells were seeded in 96-well plates and stabilized for 16 h. […] After the treatment, MTT test was performed and absorbance was measured at 540 nm. […] The data are the mean from experiments from six different passages of cells and are expressed as a percentage of viability of control cells. The values of IC50 were calculated and are indicated in a figure. […] After the treatments, cells were lysed and luciferase activity was measured. […] Data are expressed as a fold induction of luciferase activity over control cells (Panels C and D - agonist mode) or as a percentage of maximal induction attained by TCDD (Panels E and F- antagonist mode). […]

CYP1A2 protein = CYP1A2 protein induction in primary human hepatocytes (western blot); conditions: 10 µM
Source text: as §1
Total protein extracts were prepared from cells cultured on 6-well plates. Cells were washed twice with ice-cold PBS and scraped into 1 ml of PBS. The suspension was centrifuged (4500 RPM/5 min/4°C) and the pellet was resuspended in 150 µl of ice-cold lysis buffer (150 mM NaCl; 10 mM Tris pH 7.2; 0.1% (w/v) SDS; anti-protease cocktail, 1% (v/v) Triton X-100; anti-phosphatase cocktail, 1% (v/v) sodium deoxycholate; 5 mM EDTA). […] Supernatant was collected and the protein content was determined by the Bradford reagent. […] The density of bands was measured by densitometry. […]
Figure 3 Effects of omeprazole and lansoprazole enantiomers on CYP1A1 mRNA, protein and EROD activity in primary human hepatocytes. […] RT-PCR data are the mean ± SD from triplicate measurements and are expressed as fold induction over vehicle-treated cells. […] Density of bands in western blots was quantified by densitometry and the values are indicated along with respective blots. […] Upper bar graph: An activity of 7-ethoxyresorufin- O-deethylase (EROD) was measured by fluorescent spectrophotometry with 530 nm excitation and 590 nm emission filters. […] The data are expressed as fold induction over the value from control cells. Lower bar graph: A conventional MTT test was performed and absorbance was measured at 540 nm. […] The data are expressed as percentage of viability of control cells.

[3] = test system: primary human hepatocytes; test: MTT cytotoxicity test in primary human hepatocytes; conditions: 100 µM
Protocol: (§5) Figure 3 Effects of omeprazole and lansoprazole enantiomers on CYP1A1 mRNA, protein and EROD activity in primary human hepatocytes. Panel A and Panel B: RT-PCR analyses of CYP1A1 and CYP1A2 mRNA and western blots of CYP1A1 and CYP1A2 from two different cultures (HH52 and Hep220770) are shown. Human hepatocytes were incubated for 24 h (mRNA analysis) or 48 (protein analysis) with S-OME, R-OME, rac-OME, S-LAN, R-LAN, rac-LAN, TCDD and vehicle (DMSO; 0.1% v/v). RT-PCR data are the mean ± SD from triplicate measurements and are expressed as fold induction over vehicle-treated cells. Data were normalized to GAPDH mRNA levels. Density of bands in western blots was quantified by densitometry and the values are indicated along with respective blots. Panel C: EROD and cytotoxicity: Human hepatocytes (culture Hep220774) were treated for 24 h with S-OME, R-OME, rac-OME, S-LAN, R-LAN, rac-LAN, TCDD and vehicle (DMSO; 0.1% v/v). Upper bar graph: An activity of 7-ethoxyresorufin- O-deethylase (EROD) was measured by fluorescent spectrophotometry with 530 nm excitation and 590 nm emission filters. Treatments were performed in triplicates. The data are expressed as fold induction over the value from control cells. Lower bar graph: A conventional MTT test was performed and absorbance was measured at 540 nm. […] The data are expressed as percentage of viability of control cells. […]

CYP1A1 mRNA [4] = test: CYP1A1 mRNA induction in primary human hepatocytes (qRT-PCR); conditions: hepatocyte culture Hep220770, 24 h, 100 µM
Source text: as §1
(§6) Total RNA was isolated using TRI Reagent (Molecular Research Center, Cincinnati, OH, USA). cDNA was synthesized from 1000 ng of total RNA using M-MLV Reverse Transcriptase (Finnzymes, Espoo, Finland) at 42°C for 60 min in the presence of random hexamers (Takara, Shiga, Japan). qRT-PCR was carried out using LightCycler FastStart DNA MasterPLUS SYBR Green I (Roche Diagnostic Corporation, Prague, Czech Republic) on a Light Cycler 480 II apparatus (Roche Diagnostic Corporation). CYP1A1, CYP1A2 and GAPDH mRNAs were determined as described previously. Measurements were performed in triplicates. Gene expression was normalized to GAPDH as a housekeeping gene.
We examined a capability of omeprazole and lansoprazole to induce CYP1A1 and CYP1A2 mRNA and protein in primary human hepatocytes, which is a more physiological and metabolically competent cell model. Human hepatocytes were treated for 24 h or 48 h with TCDD (5 nM), vehicle (DMSO; 0.1% V/V) and tested compounds.
Figure 3 Effects of omeprazole and lansoprazole enantiomers on CYP1A1 mRNA, protein and EROD activity in primary human hepatocytes. Panel A and Panel B: RT-PCR analyses of CYP1A1 and CYP1A2 mRNA and western blots of CYP1A1 and CYP1A2 from two different cultures (HH52 and Hep220770) are shown. Human hepatocytes were incubated for 24 h (mRNA analysis) or 48 (protein analysis) with S-OME, R-OME, rac-OME, S-LAN, R-LAN, rac-LAN, TCDD and vehicle (DMSO; 0.1% v/v). RT-PCR data are the mean ± SD from triplicate measurements and are expressed as fold induction over vehicle-treated cells. Data were normalized to GAPDH mRNA levels. Density of bands in western blots was quantified by densitometry and the values are indicated along with respective blots. Panel C: EROD and cytotoxicity: Human hepatocytes (culture Hep220774) were treated for 24 h with S-OME, R-OME, rac-OME, S-LAN, R-LAN, rac-LAN, TCDD and vehicle (DMSO; 0.1% v/v). Upper bar graph: An activity of 7-ethoxyresorufin- O-deethylase (EROD) was measured by fluorescent spectrophotometry with 530 nm excitation and 590 nm emission filters. Treatments were performed in triplicates. The data are expressed as fold induction over the value from control cells. Lower bar graph: A conventional MTT test was performed and absorbance was measured at 540 nm. Treatments were performed in triplicates. The data are expressed as percentage of viability of control cells.

[5] = MTT cytotoxicity test in AZ-AHR reporter cells; conditions: human
Protocol: as §2, §3, §4

[6] = MTT cytotoxicity test in primary human hepatocytes; conditions: female, human, primary human hepatocytes, culture Hep220774
Protocol: as §5

CYP1A1 mRNA [7] = conditions: HepG2, 24 h, 5 nM, vs vehicle-treated cells
Protocol: as §6
Treatments were performed in triplicates.

CYP1A1 protein = CYP1A1 protein induction in primary human hepatocytes (western blot); conditions: hepatocyte culture HH52, 48 h
Source text: Primary human hepatocytes used in this study were obtained from two sources: (i) from multiorgan donor HH52; the use of liver cells of donor HH52 was approved by “Ethical committee at the Faculty Hospital Olomouc”,and it was in accordance with Transplantation law #285/2002 Sb; “Ethical committee at the Faculty Hospital Olomouc” waived the authors from obtaining consent from the next of kin, regarding human hepatocytes obtained from liver donor HH52. (ii) long-term human hepatocytes in monolayer Batch HEP220770 (person), Batch HEP220774 (person) were purchased from Biopredic International (Biopredic International, Rennes, France). Cells were cultured in serum-free medium. […]
Total protein extracts were prepared from cells cultured on 6-well plates. […] Supernatant was collected and the protein content was determined by the Bradford reagent. […] The density of bands was measured by densitometry. […]
Figure 3 Effects of omeprazole and lansoprazole enantiomers on CYP1A1 mRNA, protein and EROD activity in primary human hepatocytes. […] RT-PCR data are the mean ± SD from triplicate measurements and are expressed as fold induction over vehicle-treated cells. […] Density of bands in western blots was quantified by densitometry and the values are indicated along with respective blots. […] The data are expressed as fold induction over the value from control cells. […]

[8] = test system: CYP1A1 catalytic activity (EROD); test: EROD catalytic activity in HepG2 cells; conditions: HepG2, 24 h, 5 nM
[9] = test system: CYP1A1/1A2 enzymes (EROD); test: EROD activity in primary human hepatocytes; conditions: hepatocyte culture Hep220774, 24 h, 5 nM
Protocol: as §5

[10] = AZ-AHR cells, 24 h, compared to 5 nM TCDD, calculated at 100 µM compound (stated for omeprazole)

In the case of `COc1ccc2nc([S@+]([O-])Cc3ncc(C)c(OC)c3C)[nH]c2c1` [R-OME, R-omeprazole], the “CYP1A2 mRNA induction” value (CYP1A2 mRNA) is reported as 71 % of TCDD induction, the “cytotoxicity” value (AZ-AHR cells) is reported as “not cytotoxic” and the AhR agonist efficacy [1] is reported as 48.6±26.8%. For the same molecule, the EC50 ([1]; read-out: AhR agonist EC50, AZ-AHR cells, 24 h, luciferase, average of five passages) was 35.1 ± 3.7 µM and the IC50 [2] was 54.8 ± 25.9 µM.

Molecule `Cc1c(OCC(F)(F)F)ccnc1C[S@+]([O-])c1nc2ccccc2[nH]1` [S-LAN, S-lansoprazole] has an IC50 (AZ-AHR cells) of 169 µM, an EC50 [1] of 1.9 ± 0.3 µM and an AhR agonist efficacy [1, 10] of 26.3±8.7%. For the same molecule, the “CYP1A2 protein induction” value (CYP1A2 protein; hepatocyte culture HH52, 48 h) was “strong induction” and the “viability of the cells” value [3] was 64%.

For `COc1ccc2nc([S@@+]([O-])Cc3ncc(C)c(OC)c3C)[nH]c2c1` [S-OME, S-omeprazole], the “CYP1A1 mRNA induction” value (CYP1A1 mRNA [4]) was 736 fold, the IC50 at 24 h [5] was > 250 µM and the “cytotoxicity” value (AZ-AHR cells) was “not cytotoxic”. The AhR agonist efficacy [1, 10] was 44.8±11.8%, the EC50 at 24 h ([1]; human) was 22.9 ± 7.9 µM and the “CYP1A2 protein induction” value (CYP1A2 protein; both hepatocyte cultures (HH52, Hep220770), 48 h) was “strongly induced”. For the same molecule, the viability at 24 h, 250 µM [6] was 60%.

For `Clc1cc2c(cc1Cl)Oc1cc(Cl)c(Cl)cc1O2` [TCDD, 2,3,7,8-tetrachlorodibenzo-p-dioxin], the “induction of AhR-dependent luciferase activity, average” value ([1]; 5 nM TCDD, five consecutive passages, vs vehicle-treated cells) was 354 fold, the “CYP1A1 mRNA induction” value (CYP1A1 mRNA [7]) was “approximately 230 fold” and the “CYP1A1 protein induction” value (CYP1A1 protein) was “drastic increase”. The “EROD activity, average increase” value [8] was 22-23 fold and the “induction of EROD activity” value [9] was “approximately 15 fold”.
